Experimental data as given in US11339192B2, “Bicyclic peptidyl inhibitors” (priority 2017, dated 2022).
Where two headings read alike, the source gives them in different places. Numbered stars: 1 amine (or outer) side, 2 acyl side, 3 side chain; on linkers, the order of the positions; unused ones are H or OH. Bridge positions count the residues as written; N and C are the ends. Square brackets hold non-standard residues; d marks the D form. Peptide text beside a SMILES is read from it. Trimesoyl = O=C(c1cc(C(=O)[*:2])cc(C(=O)[*:3])c1)[*:1]; 2Nal = N[C@@H](Cc1ccc2ccccc2c1)C(=O)O; Dap = NC[C@H](N)C(=O)O; βAla = NCCC(=O)O

What was measured:
HeLa cells [1] = assay: Cellular uptake of FITC-labeled peptides by flow cytometry; settings: for Permeability (%), cellular uptake efficiency: FITC-labeled peptide 5 μM, 2 h, relative to CPP1 (100%); for Permeability (%), cellular uptake efficiency / cellular entry efficiency (in words): HeLa cells; for cellular entry efficiency (in words): flow cytometry
Description: (§1) For flow cytometry analysis, HeLa cells were seeded into 12-well plates (1.5×10^5 cells per well) 24 hours before treatment. The next day, 5 μM FITC-labeled peptide in DMEM containing 10% FBS was added to each well and allowed to incubate at 37° c. for 2 hours. […] This washing process was repeated once to remove any free compound and left over trypsin. The washed pellet was resuspended in DPBS with 1% FBS and analyzed on a BD LSR II flow cytometer. Data presented were the mean±SD of three independent experiments.

[2] = Proteolytic stability in human serum (analytical HPLC)
Description: The proteolytic stability of peptide 7 was assessed by incubation in human serum at 37° C. and quantitation of the remaining peptide as a function of time by analytical HPLC.

HeLa cells [3] = tested on: HeLa cells
Description: as §1

NEMO-IKKβ interaction = target: T1, NEMO-IKKβ interaction (Homo sapiens, UniProt Q9Y6K9); assay: HTRF assay of inhibition of the NEMO-IKKβ interaction; type: binding; settings: for NEMO-binding affinity on Ala substitution (in words): alanine scan of peptide 7; for fold lower NEMO-binding affinity / potency: relative to peptide 7
T1 construct: cells were transformed with a pGEX4T3-NEMO(1-196) plasmid; made in house; host or cells: Escherichia coli BL21(DE3)
Description: Recombinant GST-NEMO (20 nM), biotin-IKKβKK/RR(701-745) (50 nM), streptavidin labeled with d2 acceptor (2.5 μg/mL), anti-GST monoclonal antibody labeled with Tb donor (2.5 μg/mL), and varying concentrations of peptide (O-100 μM) were mixed in PBS containing 1 mM TCEP and 0.01% Triton X-100 (total volume 20 μL) in a 384-well plate. […] The HTRF signals were measured on a Tecan Infinite M1000 Pro microplate reader and plotted as a function of the peptide concentration. The data was analyzed using GraphPad Prism 6.0 and IC50 values were obtained by fitting the data to the dose-response inhibition curves. Data presented were the mean±SD of three independent experiments.
Expression of GST-NEMO was induced by the addition of isopropyl β-D-1-thiogalactopyranoside (150 μM final concentration). After five hours at 30° C., the cells were harvested by centrifugation. The cell pellet was suspended in 40 mL of lysis buffer (50 mM Tris-HCl, 100 mM NaCl, 0.5 mM MgCl2, 5 mM O-mercaptoethanol, 0.1% Triton-X-100, pH 8.0), 100 μg/mL lysozyme, 100 μL of DNAse I (New England BioLabs), and 100 μL of Halt Protease Inhibitor Cocktail (EDTA-free) (Thermo Scientific). This mixture was stirred at 4° C. for 30 min and briefly sonicated (2×10 s pulses). The crude lysate was centrifuged to yield a clear supernatant, which was directly loaded onto a glutathione-Sepharose 4B column (GE Healthcare). The bound protein was eluted from the column with 10 mM glutathione in 50 mM Tris-HCl (pH 8.0), concentrated to 0.5 mL with the use of Amicon Ultra-15 centrifugal filter units (MWCO 10 kDa), and dialyzed against PBS before flash freezing.
His-thx-IKKbKK/RR(701-745) was similarly expressed in E. coli BL21 (DE3) cells and purified by affinity chromatography using a HisTrap FF column (GE Healthcare). The fusion protein was eluted with 50 mM Tris-HCl (pH 8.0), 300 mM NaCl, 250 mM imidazole, 2 mM O-mercaptoethanol and treated with TEV protease (150 units for 1 mg of fusion protein) for 16 hours at 4° C. to remove the thioredoxin (thx). The resulting protease digestion mixture was reloaded onto the HisTrap column The flow-through fraction was collected and concentrated to about 2 mg/mL using Amicon Ultra-15 centrifugal filter units (MWCO 10 kDa). The IKKbKK/RR(701-745) peptide was biotinylated by treatment with a 10-fold molar excess of biotin-NHS at 4° C. overnight. The biotinylated IKKbKK/RR(701-745) was purified by reversed-phase HPLC equipped with a C18 column and stored frozen at −80° C.

A2780 cells = assay: MTT cell viability assay, A2780; type: cell-based; settings: 72 hours
Description: For the MTT cell viability assay, HeLa, HEK293, A2780, OSE or A375 cells were seeded into a 96-well microplate (3000 cells/well) in 100 μl of respective growth media and incubated at 37° c. overnight. The next day, a serial dilution of peptide was added to each well in 10 μL of assay medium. The treated cells were incubated at 37° c. with 5% CO2 for 72 hours. Following compound treatment, 10 μL of MTT stock solution (Roche) was added to each well. After an additional 4 h at 37° C., 100 μL of SDS-HCl solubilizing solution was added to each well and the plate was returned to the incubator overnight at 37° c. A Tecan Infinite M1000 Pro microplate reader was used the following morning to measure the absorbance of the formazan product at 565 nm.

[4] = tested on: NF-κB activation in HEK293(Luc) cells; assay: NF-κB luciferase assay; type: cell-based
Description: The ability of the bicyclic peptidyl inhibitors to inhibit NF-κB Signaling was analyzed. The ability of peptide 7 to enter the cell and block the intracellular NEMO-IKK interaction was assessed by using HEK293(Luc) cells, which harbor a luciferase gene under the transcriptional control of NF-κB. For the NF-κB Luciferase Assays, culture media was exchanged for DMEM containing 10% FBS and 1% penicillin/streptomycin the day before seeding to remove hygromycin B. HEK293(Luc) cells were seeded in 50 μL of assay medium (DMEM, 10% FBS, and 1% penicillin/streptomycin) in an opaque 96-well microplate (3000 cells per well) and incubated overnight. The peptide inhibitors were added to the cells the next day in 5 μL of assay medium and the plate was incubated at 37° c. for 2 h. After that, 5 μL of assay media containing recombinant TNFα (final concentration 5 ng/mL) was added to the wells. The plate was then returned to the incubator for 4 h at 37° c. Finally, 50 μL of ONE-Step luciferase assay reagent was added to each well and after 10 minutes the luminescence was measured on a Tecan Infinite M1000 Pro microplate reader. Data presented were the mean±SD of at least three independent experiments (n=6 for basal activities).

T1 sequence (Q9Y6K9 1-196): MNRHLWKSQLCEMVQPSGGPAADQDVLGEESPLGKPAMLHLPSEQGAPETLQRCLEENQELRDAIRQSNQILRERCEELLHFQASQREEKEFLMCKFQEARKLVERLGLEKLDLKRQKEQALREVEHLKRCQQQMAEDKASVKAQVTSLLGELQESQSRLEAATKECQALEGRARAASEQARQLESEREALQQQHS

CC[C@H](C)[C@H](NC(=O)[C@H](CCCCN)NC(=O)[C@@H](NC(=O)[C@H](CCC(N)=O)NC(=O)[C@@H](N)CCCNC(=N)N)[C@@H](C)CC)C(=O)N[C@@H](Cc1c[nH]c2ccccc12)C(=O)N[C@@H](Cc1ccccc1)C(=O)N[C@@H](CCC(N)=O)C(=O)N[C@@H](CC(N)=O)C(=O)N[C@@H](CCCNC(=N)N)C(=O)N[C@@H](CCCNC(=N)N)C(=O)N[C@@H](CCSC)C(=O)N[C@@H](CCCCN)C(=O)N[C@@H](Cc1c[nH]c2ccccc12)C(=O)N[C@@H](CCCCN)C(=O)N[C@@H](CCCCN)C(=O)NCC(=O)NCC(=O)N[C@H](C(=O)N[C@@H](C)C(=O)N[C@@H](CC(C)C)C(=O)N[C@@H](CC(=O)O)C(=O)N[C@@H](Cc1c[nH]c2ccccc12)C(=O)N[C@@H](CO)C(=O)N[C@@H](Cc1c[nH]c2ccccc12)C(=O)N[C@@H](CC(C)C)C(=O)N[C@@H](CCC(N)=O)C(=O)N[C@H](C(=O)N[C@@H](CCC(=O)O)C(=O)O)[C@@H](C)O)[C@@H](C)O [Peptide 1, reference compound]
Permeability (%), cellular uptake efficiency (HeLa cells [1]): 35% | half-life [2]: ~20 min

CC[C@H](C)[C@@H]1NC(=O)[C@H](Cc2c[nH]c3ccccc23)NC(=O)CNC(=O)c2cc3cc(c2)C(=O)NC[C@H](NC(=O)[C@H](Cc2ccc(O)cc2)NC1=O)C(=O)N[C@@H](Cc1ccccc1)C(=O)N[C@@H](Cc1ccc2ccccc2c1)C(=O)N[C@@H](CCCNC(=N)N)C(=O)N[C@@H](CCCNC(=N)N)C(=O)N[C@@H](CCCNC(=N)N)C(=O)N[C@H](C(=O)NCCC(=O)NCCC(=O)N[C@@H](CCCCN)C(=O)O)CNC3=O [Peptide 2, Tm(GWIY)Δ(FΦRRRΔ)-BBK] (GWIY[Dap]F[2Nal]RRR[Dap][βAla][βAla]K-OH; linker N-5-11 via Trimesoyl; C-terminus assumed)
Permeability (%), cellular uptake efficiency (HeLa cells [1]): 76%

CC[C@H](C)[C@@H]1NC(=O)[C@H](Cc2c[nH]c3ccccc23)NC(=O)CNC(=O)c2cc3cc(c2)C(=O)NC[C@H](NC(=O)[C@H](Cc2ccc(O)cc2)NC1=O)C(=O)N[C@@H](Cc1ccccc1)C(=O)N[C@@H](Cc1ccc2ccccc2c1)C(=O)N[C@@H](CCCNC(=N)N)C(=O)N[C@@H](CCCNC(=N)N)C(=O)N[C@@H](CCCNC(=N)N)C(=O)N[C@@H](CCCNC(=N)N)C(=O)N[C@H](C(=O)NCCC(=O)NCCC(=O)N[C@@H](CCCCN)C(=O)O)CNC3=O [Peptide 3, Tm(GWIY)Δ(FΦRRRRΔ)-BBK] (GWIY[Dap]F[2Nal]RRRR[Dap][βAla][βAla]K-OH; linker N-5-12 via Trimesoyl; C-terminus assumed)
cellular entry efficiency (in words) (HeLa cells [3]): slightly decreased the cellular entry efficiency

CC[C@H](C)[C@@H]1NC(=O)[C@H](Cc2c[nH]c3ccccc23)NC(=O)CNC(=O)c2cc3cc(c2)C(=O)NC[C@H](NC(=O)[C@H](Cc2ccc(O)cc2)NC1=O)C(=O)N[C@@H](Cc1ccccc1)C(=O)N[C@@H](Cc1ccc2ccccc2c1)C(=O)N[C@@H](CCCNC(=N)N)C(=O)N[C@@H](CCCNC(=N)N)C(=O)N[C@@H](CCCNC(=N)N)C(=O)N[C@H](C(=O)N[C@@H](CCCNC(=N)N)C(=O)NCCC(=O)N[C@@H](CCCCN)C(=O)O)CNC3=O [Peptide 4, Tm(GWIY)Δ(FΦRRRΔ)-RBK] (GWIY[Dap]F[2Nal]RRR[Dap]R[βAla]K-OH; linker N-5-11 via Trimesoyl; C-terminus assumed)
Permeability (%), cellular uptake efficiency (HeLa cells [1]): 71% | cellular entry efficiency (in words) (HeLa cells [1]): slightly decreased the cellular entry efficiency

CC[C@H](C)[C@@H]1NC(=O)[C@H](Cc2c[nH]c3ccccc23)NC(=O)CNC(=O)c2cc3cc(c2)C(=O)NC[C@@H](C(=O)N[C@H](CCCNC(=N)N)C(=O)NCCC(=O)N[C@@H](CCCCN)C(=O)O)NC(=O)[C@H](CCCNC(=N)N)NC(=O)[C@H](CCCNC(=N)N)NC(=O)[C@H](CCCNC(=N)N)NC(=O)[C@H](Cc2ccc4ccccc4c2)NC(=O)[C@H](Cc2ccccc2)NC(=O)[C@H](CNC3=O)NC(=O)[C@H](Cc2ccc(O)cc2)NC1=O [Peptide 5, Tm(GWIY)Δ(FΦRRRΔ)-rBK] (GWIY[Dap]F[2Nal]RRR[Dap][dR][βAla]K-OH; linker N-5-11 via Trimesoyl; C-terminus assumed)
Permeability (%), cellular uptake efficiency (HeLa cells [1]): 71% | cellular entry efficiency (in words) (HeLa cells [1]): slightly decreased the cellular entry efficiency

CC[C@H](C)[C@@H]1NC(=O)[C@H](Cc2c[nH]c3ccccc23)NC(=O)CNC(=O)c2cc3cc(c2)C(=O)NC[C@H](NC(=O)[C@H](Cc2ccc(O)cc2)NC1=O)C(=O)N[C@@H](Cc1ccccc1)C(=O)N[C@@H](Cc1ccc2ccccc2c1)C(=O)N[C@@H](CCCNC(=N)N)C(=O)N[C@H](CCCNC(=N)N)C(=O)N[C@@H](CCCNC(=N)N)C(=O)N[C@H](C(=O)NCCC(=O)NCCC(=O)N[C@@H](CCCCN)C(=O)O)CNC3=O [Peptide 6, Tm(GWIY)Δ(FΦRrRΔ)-BBK] (GWIY[Dap]F[2Nal]R[dR]R[Dap][βAla][βAla]K-OH; linker N-5-11 via Trimesoyl; C-terminus assumed)
Permeability (%), cellular uptake efficiency (HeLa cells [1]): 322% | increase of uptake efficiency (HeLa cells [1]; second arginine replaced with D-arginine, versus peptide 2): 4.2 fold

CC[C@H](C)[C@@H]1NC(=O)[C@H](Cc2c[nH]c3ccccc23)NC(=O)CNC(=O)c2cc3cc(c2)C(=O)NC[C@@H](C(=O)NCCC(=O)NCCC(=O)N[C@@H](CCCCN)C(=O)O)NC(=O)[C@H](CCCNC(=N)N)NC(=O)[C@@H](CCCNC(=N)N)NC(=O)[C@H](CCCNC(=N)N)NC(=O)[C@H](Cc2ccc4ccccc4c2)NC(=O)[C@H](C)NC(=O)[C@H](CNC3=O)NC(=O)[C@H](C)NC(=O)[C@H](Cc2ccc(O)cc2)NC1=O [Peptide 15, Tm(GWIYA)Δ(AΦRrRΔ)-BBK] (GWIYA[Dap]A[2Nal]R[dR]R[Dap][βAla][βAla]K-OH; linker N-6-12 via Trimesoyl; C-terminus assumed)
NEMO-binding affinity on Ala substitution (in words) (NEMO-IKKβ interaction): significantly de-creased the NEMO-binding affinity

CC[C@H](C)[C@@H]1NC(=O)[C@H](Cc2c[nH]c3ccccc23)NC(=O)CNC(=O)c2cc3cc(c2)C(=O)NC[C@@H](C(=O)NCCC(=O)NCCC(=O)N[C@@H](CCCCN)C(=O)O)NC(=O)[C@H](CCCNC(=N)N)NC(=O)[C@@H](CCCNC(=N)N)NC(=O)[C@H](CCCNC(=N)N)NC(=O)[C@H](C)NC(=O)[C@H](Cc2ccccc2)NC(=O)[C@H](CNC3=O)NC(=O)[C@H](C)NC(=O)[C@H](Cc2ccc(O)cc2)NC1=O [Peptide 16, Tm(GWIYA)Δ(FARrRΔ)-BBK] (GWIYA[Dap]FAR[dR]R[Dap][βAla][βAla]K-OH; linker N-6-12 via Trimesoyl; C-terminus assumed)
NEMO-binding affinity on Ala substitution (in words) (NEMO-IKKβ interaction): significantly de-creased the NEMO-binding affinity

CC[C@H](C)[C@@H]1NC(=O)[C@H](C)NC(=O)CNC(=O)c2cc3cc(c2)C(=O)NC[C@@H](C(=O)NCCC(=O)NCCC(=O)N[C@@H](CCCCN)C(=O)O)NC(=O)[C@H](CCCNC(=N)N)NC(=O)[C@@H](CCCNC(=N)N)NC(=O)[C@H](CCCNC(=N)N)NC(=O)[C@H](Cc2ccc4ccccc4c2)NC(=O)[C@H](Cc2ccccc2)NC(=O)[C@H](CNC3=O)NC(=O)[C@H](C)NC(=O)[C@H](C)NC1=O [Peptide 20, Tm(GAIAA)Δ(FΦRrRΔ)-BBK] (GAIAA[Dap]F[2Nal]R[dR]R[Dap][βAla][βAla]K-OH; linker N-6-12 via Trimesoyl; C-terminus assumed)
activity on A2780 viability (in words) (A2780 cells): much less active than peptide 7 | effect on TNFα-induced luciferase activity (in words) [4]: decreased the luciferase activity only at high concentrations | fold lower NEMO-binding affinity / potency (NEMO-IKKβ interaction): 16 fold

C[C@@H]1NC(=O)CNC(=O)c2cc3cc(c2)C(=O)NC[C@@H](C(=O)NCCC(=O)NCCC(=O)N[C@@H](CCCCN)C(=O)O)NC(=O)[C@H](CCCNC(=N)N)NC(=O)[C@@H](CCCNC(=N)N)NC(=O)[C@H](CCCNC(=N)N)NC(=O)[C@H](Cc2ccc4ccccc4c2)NC(=O)[C@H](Cc2ccccc2)NC(=O)[C@H](CNC3=O)NC(=O)[C@H](C)NC(=O)[C@H](C)NC(=O)[C@H](C)NC1=O [Peptide 21, Tm(GAAAA)Δ(FΦRrRΔ)-BBK] (GAAAA[Dap]F[2Nal]R[dR]R[Dap][βAla][βAla]K-OH; linker N-6-12 via Trimesoyl; C-terminus assumed)
activity on A2780 viability (in words) (A2780 cells): much less active than peptide 7 | effect on TNFα-induced luciferase activity (in words) [4]: decreased the luciferase activity only at high concentrations | fold lower NEMO-binding affinity / potency (NEMO-IKKβ interaction): > 100 fold
